# Values joined by “and” are separate entries in the source; they are usually repeats but may differ in a detail not shown here. Equal entries are not always repeated.
# What was measured:
# in vitro = details: human, plasma
# [1] = tested on: subjects in remission from hepatic encephalopathy (HE); experiment: First study: HE-related, HE-caused and all-cause hospitalization; format: in vivo, human; details: for Probability of no HE-related hospitalization: Kaplan-Meier; for Probability of no HE-related hospitalization / Cumulative number of events (HE-related hospitalization) / Event probability (HE-related hospitalization during the treatment interval) / Number of events (HE-related hospitalization): ITT, N = 140
# Source text: The analysis of time to first HE-related hospitalization was based on the comparison of time to hospitalization between rifaximin and placebo.
# FIG. 9 illustrates time to first HE-related hospitalization (e.g., hospitalization directly resulting from HE or hospitalization caused by HE) by treatment group in the ITT population in the first study. Table 19 presents estimates of the proportions of subjects who had their first HE-related hospitalization over the course of the Treatment Period and results of statistical analyses. Subjects who discontinued prior to hospitalization due to HE and prior to completion of the 6-month treatment period were censored at the time of discontinuation. […] This hazard ratio represents a 50% reduction, when compared with placebo, in the risk of hospitalization due to HE during the 6-month treatment period.
# FIG. 5 illustrates time to first HE-caused hospitalizations by treatment group in the first study.
# CYP3A4 = biological target: T1, CYP3A4 (Homo sapiens, UniProt P08684); experiment: In vitro cytochrome P450 inhibition; format: in vitro ADME; details: 2 to 200 ng/mL
# T1 construct: from tissue; host or cells: human liver fractions
# [2] = tested on: liver transplant patients who presented with HE; experiment: Chart review of 39 liver transplant patients with HE; format: in vivo, human
# clinical = details: male, human, in vivo
# patients with HE [3] = format: in vivo, human
# Source text: Total number of hospitalizations, duration of hospitalizations, HE endpoints, and cost of therapy were compared between the 2 treatment regimens.
# [4] = human
# Procedure: The covariates chosen for the analysis are known indicators of hepatic and renal function. A visual diagnostic was performed to detect potential trends between covariates of interest and AUCτ, Cmax, and CL/F.
# patients with HE [5] = details: rifaximin 1200 mg/day, neomycin 3 g/day; cited from earlier work
# epithelial cells = experiment: Effects of rifaximin on mammalian epithelial cells; format: cell-based
# [6] = tested on: subjects with a history of recurrent, overt, episodic HE; details: human, in vivo
# Source text: At the time of this interim analysis, TEAEs were reported in 230 subjects (86.5%). The most common TEAEs (e.g., in ≧10% of total subjects) experienced by subjects were the following: peripheral edema (15.8%); urinary tract infection and nausea (12.8% each); and abdominal pain and ascites (10.5% each).
# Treatment-emergent SAEs were experienced by 47.4% of subjects.
# rats = experiment: in vivo; details: rat
# Procedure: (§1) However, plasma drug levels were not measured in these studies. […] The maximum plasma AUC0-8 hr values from the 6 month rat and 9 month dog toxicity studies (range: 42-127 ng·h/mL) was lower than the maximum plasma AUC0-8 hr values in cirrhotic patients (range: 19-306 ng·h/mL).
# in vivo = details: rat
# Procedure: as §1
# [7] = treatment interval 0 to <28 days
# [8] = treatment interval 28 to <56 days
# [9] = treatment interval 56 to <84 days
# [10] = treatment interval 84 to <140 days
# [11] = treatment interval 140 to <168 days
# T1 sequence (P08684 whole entry): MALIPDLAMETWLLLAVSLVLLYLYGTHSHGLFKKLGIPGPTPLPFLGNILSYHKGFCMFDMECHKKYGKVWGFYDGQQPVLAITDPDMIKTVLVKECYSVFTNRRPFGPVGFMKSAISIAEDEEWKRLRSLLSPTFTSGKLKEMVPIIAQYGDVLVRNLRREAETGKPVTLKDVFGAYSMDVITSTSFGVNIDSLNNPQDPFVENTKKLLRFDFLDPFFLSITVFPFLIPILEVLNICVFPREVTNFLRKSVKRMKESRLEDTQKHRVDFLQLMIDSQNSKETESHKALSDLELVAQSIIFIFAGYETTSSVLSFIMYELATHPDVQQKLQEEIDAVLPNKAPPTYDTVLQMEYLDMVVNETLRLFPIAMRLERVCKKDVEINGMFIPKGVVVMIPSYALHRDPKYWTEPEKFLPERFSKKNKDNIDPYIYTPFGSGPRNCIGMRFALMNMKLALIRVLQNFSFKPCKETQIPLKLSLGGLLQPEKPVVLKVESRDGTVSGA
compound,measurement,setting,value
"CO[C@H]1/C=C/O[C@@]2(C)Oc3c(C)c(O)c4c(O)c(c5c(nc6cc(C)ccn65)c4c3C2=O)NC(=O)/C(C)=C\C=C\[C@H](C)[C@H](O)[C@@H](C)[C@@H](O)[C@@H](C)[C@H](OC(C)=O)[C@@H]1C [rifaximin, (2S,16Z,18E,20S,21S,22R,23R,24R,25 S,26S,27S,28E)-5,6,21,23,25-pentahydroxy-27-methoxy-2,4,11,16,20,22,24,26-octamethyl-2,7-(epoxypentadeca-[1,11,13]trienimino)benzofuro[4,5-e]pyrido[1,2-á]-benzimidazole-1,15(2H)-dione,25-acetate]",fraction unbound,in vitro,0.447
same,reduction in risk of HE-caused hospitalization vs placebo,[1]; 6-month treatment,56%
same,reduction in risk of HE-related hospitalization vs placebo,[1]; 6-month treatment,50%
same,Probability of no HE-related hospitalization,[1]; [7],1.0000
same,Probability of no HE-related hospitalization,[1]; [8],0.9711
same,Probability of no HE-related hospitalization,[1]; [9],0.9411
same,Probability of no HE-related hospitalization,[1]; [10],0.0904
same,Probability of no HE-related hospitalization,[1]; [11],0.8665
same,Probability of no HE-related hospitalization,[1]; treatment interval ≧168 days,0.8475
same,Survival,"[1]; Table 4, N = 140, days r11-r21 as E901",1.0000 and 0.9564 and 0.9258 and 0.8848 and 0.8403 and 0.8108
same,Survival,"[1]; Table 17, days r10-r15 as E2201",1.0000 and 0.9711 and 0.9411 and 0.9094 and 0.8665 and 0.8475
same,HE-caused hospitalization rate,[1]; first study,0.30 events/PEY
same,HE-related hospitalization rate lower than placebo,[1]; in vivo,51%
same,reduction in risk of all-cause hospitalization vs placebo,[1]; in vivo,30%
same,subjects with HE-caused hospitalizations,[1]; in vivo,15 of 140
same,subjects with all-cause hospitalization,[1]; in vivo,46 of 140
same,time to first HE related hospitalization vs placebo (FIG. 3),[1]; in vivo,increased time to hospitalization
same,HE-related hospitalization rate,[1]; normalized to exposure,0.38 event/PEY
same,Cumulative number of events (HE-related hospitalization),[1]; [7],4
same,Event probability (HE-related hospitalization during the treatment interval),[1]; [7],0.03
same,Number of events (HE-related hospitalization),[1]; [7],4
same,Cumulative number of events (HE-related hospitalization),[1]; [8],8
same,Event probability (HE-related hospitalization during the treatment interval),[1]; [8],0.03
same,Number of events (HE-related hospitalization),[1]; [8],4
same,Cumulative number of events (HE-related hospitalization),[1]; [9],12
same,Event probability (HE-related hospitalization during the treatment interval),[1]; [9],0.03
same,Number of events (HE-related hospitalization),[1]; [9],4
same,Cumulative number of events (HE-related hospitalization),[1]; [10],17
same,Event probability (HE-related hospitalization during the treatment interval),[1]; [10],0.05
same,Number of events (HE-related hospitalization),[1]; [10],5
same,Cumulative number of events (HE-related hospitalization),[1]; [11],19
same,Event probability (HE-related hospitalization during the treatment interval),[1]; [11],0.02
same,Number of events (HE-related hospitalization),[1]; [11],2
same,Cumulative number of events (HE-related hospitalization),[1]; treatment interval ≧168 days,19
same,Event probability (HE-related hospitalization during the treatment interval),[1]; treatment interval ≧168 days,0
same,Number of events (HE-related hospitalization),[1]; treatment interval ≧168 days,0
same,inhibition of CYP3A4,CYP3A4,did not inhibit
same,hospitalizations reported,"[2]; 15 rifaximin, 24 lactulose patients",3
same,average length of stay,"[2]; human, in vivo",3.5 days
same,AUC(0-t),clinical,19.5 ± 16.5 ng·h/mL
same,Cmax,clinical,4.3 ± 2.8 ng/mL
same,Tmax,clinical,1.25 h
same,patients with Conn scores of 3 or 4,patients with HE [3]; end of treatment period,6%
same,days hospitalized,"patients with HE [3]; human, in vivo",2.5 days
same,"hospitalizations due to HE, cost, HE endpoints vs lactulose","patients with HE [3]; human, in vivo",dramatically reduced
same,patients with asterixis at end of treatment period,"patients with HE [3]; human, in vivo",63%
same,hospitalizations,"patients with HE [3]; rifaximin 400 mg 3 times/day, lactulose 30 mL twice daily",0.5
same,Regression estimate for AUCτ: Albumin,[4],−0.0573
same,Regression estimate for AUCτ: INR,[4],−1.7432
same,Regression estimate for AUCτ: Intercept,[4],8.4175
same,Regression estimate for AUCτ: Total Bilirubin,[4],0.0173
same,Regression estimate for CL/F: ALT,[4],−0.0028
same,Regression estimate for CL/F: Albumin,[4],0.0783
same,Regression estimate for CL/F: INR,[4],2.5949
same,Regression estimate for CL/F: Intercept,[4],−0.8934
same,Regression estimate for CL/F: Total Bilirubin,[4],−0.0185
same,Regression estimate for Cmax: ALT,[4],0.0031
same,Regression estimate for Cmax: Albumin,[4],−0.0515
same,Regression estimate for Cmax: INR,[4],−2.0654
same,Regression estimate for Cmax: Intercept,[4],6.5350
same,Regression estimate for Cmax: Total Bilirubin,[4],0.0207
same,efficacy in patients with HE,patients with HE [5],comparable efficacy
same,effect on epithelial cells,epithelial cells,resistant to bacterial colonization and internalization
same,TEAE abdominal pain,[6],10.5%
same,TEAE ascites,[6],10.5%
same,TEAE nausea,[6],12.8%
same,TEAE peripheral edema,[6],15.8%
same,TEAE urinary tract infection,[6],12.8%
same,subjects with HE counted for the safety analyses,[6],21.4%
same,subjects with TEAEs,[6],86.5%
same,subjects with at least 1 severe TEAE,[6],40.2%
same,subjects with treatment-emergent SAEs,[6],47.4%
same,toxic effects,rats,negligible toxic effects
same,AUC(0-t),in vivo,42 to 127 ng·h/mL
